Reference: patent US20260184727A1, “SOLID FORMS OF MACROCYCLIC COMPOUNDS AND USES THEREOF” (AMGEN INC., priority 2024, published 2026)
Converted amounts (≈) assume the structure as drawn. Where two headings read alike, the source gives them in different places.

Legend:
[1] = Moisture sorption analysis (DVS); assay type: physicochemical; conditions: for hygroscopicity by DVS isotherm / moisture uptake (DVS): 25° C.
Experimental: Moisture Sorption Analysis-Moisture sorption isotherm was determined using a DVS Endeavour at 25° C. in an aluminum pan with water as the solvent (closed loop) and nitrogen gas flow at 200 sccm. The sample was analyzed from 40% to 0% to 90% to 0% to 90% to 0% to 40% RH in 5% RH steps.

[2] = Moisture sorption analysis (DVS); assay type: physicochemical; conditions: for moisture uptake (DVS): 25° C.
[3] = Physical and chemical stability of Form 1E; assay type: physicochemical
[4] = Comparative solubilities of Form 1 and Form 1E in biorelevant media; assay type: physicochemical; conditions: for solubility: read-out: Solubility Conc
[5] = PK properties of Form 1E in male dogs under fasted and fed conditions; assay type: in vivo; conditions: for AUC(0-inf) / AUC(0-t) / CL/F / Cmax / MRT / Tmax / half-life: male, dog, plasma, po; for half-life: read-out: t1/2, z (converted)
[6] = Single dose dog PK, Form 1E compared to Compound A free base; assay type: in vivo, dogs; conditions: FIG. 5C
Experimental: The pharmacokinetic (PK) properties of Form 1E was evaluated in dogs.

[7] = 30 mg/kg, pH 2, male dogs, Study A, 30.0 mg/kg p.o., Vehicle 1 (water/malonic acid pH 2.0), Fasted
[8] = 30 mg/kg, pH 2, male dogs, Study A, 30.0 mg/kg p.o., Vehicle 1 (water/malonic acid pH 2.0), Fed (kibble)
[9] = 50 mg/kg, pH 7, male dogs, Study B, Vehicle 2 (water/MSA pH7.0), Fasted
[10] = 50 mg/kg, pH 7, male dogs, Study B, Vehicle 2 (water/MSA pH7.0), Fed (high fat)

O=C1OCCCc2c(Cl)cc3[nH]ncc3c2-c2ncc3c(nc(OC[C@@]45CCCN4C[C@H](F)C5)nc3c2F)N2CCOC[C@H](C2)O1 [Form 1A]
hygroscopicity by DVS isotherm [1]: hygroscopic | moisture uptake (DVS) ([2]; at 95% relative humidity): 5.4 wt. %

O=C1OCCCc2c(Cl)cc3[nH]ncc3c2-c2ncc3c(nc(OC[C@@]45CCCN4C[C@H](F)C5)nc3c2F)N2CCOC[C@H](C2)O1 [Form 1B]
hygroscopicity by DVS isotherm [1]: hygroscopic | moisture uptake (DVS) ([2]; at 95% relative humidity): 4.7 wt. %

O=C1OCCCc2c(Cl)cc3[nH]ncc3c2-c2ncc3c(nc(OC[C@@]45CCCN4C[C@H](F)C5)nc3c2F)N2CCOC[C@H](C2)O1 [Form 1E]
physical stability ([3]; accelerated conditions): physically stable | chemically stable for ([3]; at 5° C.): more than 2 years | solubility ([4]; FaSSGF, pH 1.99, fassgf or other biorelevant): 5990 µg/mL (≈ 9130 µM) | solubility ([4]; FaSSIF, pH 4.86, fassif): 1730 µg/mL (≈ 2640 µM) | solubility ([4]; FeSSIF, pH 4.58, fessif): 2500 µg/mL (≈ 3810 µM) | solubility ([4]; PBS, pH 4.55, aqueous buffer): 1300 µg/mL (≈ 1980 µM) | solubility in several media relative to Form 1 ([4]; several media, compared with Form 1): higher solubility | Equilibrium crystal form ([4]; solubility sample in FaSSGF): Form 1E | Equilibrium crystal form ([4]; solubility sample in FaSSIF): Form 1E | Equilibrium crystal form ([4]; solubility sample in FeSSIF): Form 1E | Equilibrium crystal form ([4]; solubility sample in H2O): Form 1E | Equilibrium crystal form ([4]; solubility sample in PBS): Form 1E | solubility ([4]; water, H2O, pH 3.93): 7760 µg/mL (≈ 11800 µM) | plasma exposure (Cmax and AUC), fed versus fasted conditions ([5]; dogs, FIGS. 5D and 5E, kibble or high fat diet): did not show a difference | emesis ([5]; dogs, prior studies, 50 mg/kg and a high fat diet): suffered from emesis | AUC(0-inf) [5, 7]: 14.2 µM·h | AUC(0-t) [5, 7]: 14.1 µM·h | CL/F [5, 7]: 73.5 mL/min/kg | Cmax [5, 7]: 5820 nM | MRT [5, 7]: 3.16 h | Tmax [5, 7]: 0.312 h | half-life [5, 7]: 2.67 h | AUC(0-inf) [5, 8]: 17 µM·h | AUC(0-t) [5, 8]: 17 µM·h | CL/F [5, 8]: 55.8 mL/min/kg | Cmax [5, 8]: 4290 nM | MRT [5, 8]: 4.14 h | Tmax [5, 8]: 1.62 h | half-life [5, 8]: 2.96 h | half-life ([5]; 50 mg/kg, pH 7, male dogs, Study B, 50.0 mg/kg, Vehicle 2 (water/MSA pH7.0), Fasted): 3.47 h | half-life ([5]; 50 mg/kg, pH 7, male dogs, Study B, 50.0 mg/kg, Vehicle 2 (water/MSA pH7.0), Fed (high fat)): 4.83 h | AUC(0-inf) [5, 9]: 3.54 µM·h | AUC(0-t) [5, 9]: 3.53 µM·h | CL/F [5, 9]: 783 mL/min/kg | Cmax [5, 9]: 1350 nM | MRT [5, 9]: 3.79 h | Tmax [5, 9]: 0.9 h | AUC(0-inf) [5, 10]: 3.91 µM·h | AUC(0-t) [5, 10]: 3.89 µM·h | CL/F [5, 10]: 1160 mL/min/kg | Cmax [5, 10]: 1050 nM | MRT [5, 10]: 4.26 h | Tmax [5, 10]: 1.5 h | hygroscopicity by DVS isotherm [1]: non-hygroscopic | moisture uptake (DVS) ([1]; at 90% relative humidity): 0.6 wt. % | hygroscopicity compared to all other forms ([1]; compared to all other solid forms of Compound A): lowest hygroscopicity | improvement in plasma concentration compared to Compound A free base [6]: ~2 ×

O=C1OCCCc2c(Cl)cc3[nH]ncc3c2-c2ncc3c(nc(OC[C@@]45CCCN4C[C@H](F)C5)nc3c2F)N2CCOC[C@H](C2)O1 [Form 1]
solubility ([4]; FaSSGF, pH 2.06, fassgf or other biorelevant): 4420 µg/mL (≈ 6740 µM) | solubility ([4]; FaSSIF, pH 7.15, fassif): 35 µg/mL (≈ 53.3 µM) | solubility ([4]; FeSSIF, pH 5.51, fessif): 560 µg/mL (≈ 854 µM) | solubility ([4]; PBS, pH 7.04, aqueous buffer): 10 µg/mL (≈ 15.2 µM) | Equilibrium crystal form ([4]; solubility sample in FaSSGF): Form 1 | Equilibrium crystal form ([4]; solubility sample in FaSSIF): Form 1 | Equilibrium crystal form ([4]; solubility sample in FeSSIF): Form 1 | Equilibrium crystal form ([4]; solubility sample in H2O): Form 1 | Equilibrium crystal form ([4]; solubility sample in PBS): Form 1 | solubility ([4]; water, H2O, pH 8.73): 0.3 µg/mL (≈ 0.457 µM)

O=C1OCCCc2c(Cl)cc3[nH]ncc3c2-c2ncc3c(nc(OC[C@@]45CCCN4C[C@H](F)C5)nc3c2F)N2CCOC[C@H](C2)O1 [Form A1-A]
hygroscopicity as per TGA and XRPD analysis ([2]; judged from TGA and XRPD, no DVS reported): hygroscopic

O=C1OCCCc2c(Cl)cc3[nH]ncc3c2-c2ncc3c(nc(OC[C@@]45CCCN4C[C@H](F)C5)nc3c2F)N2CCOC[C@H](C2)O1 [Form C1]
hygroscopicity by DVS isotherm [1]: hygroscopic | moisture uptake (DVS) ([1]; at 85% relative humidity): 4.0 wt. % | behaviour in DVS at 95% relative humidity ([2]; at 95% relative humidity): deliquescence

O=C1OCCCc2c(Cl)cc3[nH]ncc3c2-c2ncc3c(nc(OC[C@@]45CCCN4C[C@H](F)C5)nc3c2F)N2CCOC[C@H](C2)O1 [Form C-P]
hygroscopicity by DVS isotherm [1]: hygroscopic | moisture uptake (DVS) ([1]; at 80% RH): 3.08 wt. %
